Test results as given in publication PMC8344253, “Identifying requirements for RSK2 specific inhibitors” (Journal of Enzyme Inhibition and Medicinal Chemistry, 2021).

Columns and labels:
RSK2 [1] = target: T1, RSK2 (Homo sapiens, UniProt P51812); test: ELISA kinase activity assay, RSK2; type: biochemical; conditions: for IC50: 10 μM ATP, 30 min reaction; for % Uninhibited kinase at 30 μM: 30 μM inhibitor
Description: The activity of RSK2 was measured as previously reported. Briefly, 1 nM kinase, inhibitor or vehicle (1% DMSO), and 10 μM ATP in kinase buffer were dispensed into the wells of a 96-well plate with adsorbed glutathione S-transferase fusion protein containing the sequence […]. The reaction was stopped after 30 min, during the linear phase, with the addition of equal volume 500 mM EDTA, then phosphorylated peptide was measured by ELISA. Luminescence from wells with EDTA added before ATP was subtracted, then luminescence was normalised to the average vehicle luminescence. […] After 2 h incubation, the kinase/inhibitor mix was diluted 100-fold in kinase buffer. […] The reaction was stopped at the time indicated in the figures with the addition of EDTA, and amount of phosphorylated peptide was measured by ELISA.
(§1) Hill slope and IC50 were unconstrained. […] Statistical significance is considered using α = 0.01.

247 kinases = test system: 247 kinases; parameters: method as in PMID 27528706; conditions: representatives from all kinase families; cited from earlier work
RSK2 [2] = target: T1, RSK2; test: FRET kinase binding assay (LanthaScreen Eu Kinase Binding Assay), full-length RSK2; conditions: for % Uninhibited kinase at 30 μM: 30 μM inhibitor; for IC50: 15 nM tracer; for Relative Off-Rate: slope of change in IC50 over time after 2 h pre-incubation, log-log fit
Description: (§2) Normalised EMR was calculated in MATLAB (Mathworks).
as §1

RSK1/2 = conditions: cell-based assay; cited from earlier work
RSK1 [3] = target: T2, RSK1 (Homo sapiens, UniProt Q15418); test: ELISA dilution reaction (100-fold dilution after 2 h pre-incubation), RSK1; type: biochemical; conditions: 4 h after 100-fold dilution
T2 sequence (Q15418 whole entry): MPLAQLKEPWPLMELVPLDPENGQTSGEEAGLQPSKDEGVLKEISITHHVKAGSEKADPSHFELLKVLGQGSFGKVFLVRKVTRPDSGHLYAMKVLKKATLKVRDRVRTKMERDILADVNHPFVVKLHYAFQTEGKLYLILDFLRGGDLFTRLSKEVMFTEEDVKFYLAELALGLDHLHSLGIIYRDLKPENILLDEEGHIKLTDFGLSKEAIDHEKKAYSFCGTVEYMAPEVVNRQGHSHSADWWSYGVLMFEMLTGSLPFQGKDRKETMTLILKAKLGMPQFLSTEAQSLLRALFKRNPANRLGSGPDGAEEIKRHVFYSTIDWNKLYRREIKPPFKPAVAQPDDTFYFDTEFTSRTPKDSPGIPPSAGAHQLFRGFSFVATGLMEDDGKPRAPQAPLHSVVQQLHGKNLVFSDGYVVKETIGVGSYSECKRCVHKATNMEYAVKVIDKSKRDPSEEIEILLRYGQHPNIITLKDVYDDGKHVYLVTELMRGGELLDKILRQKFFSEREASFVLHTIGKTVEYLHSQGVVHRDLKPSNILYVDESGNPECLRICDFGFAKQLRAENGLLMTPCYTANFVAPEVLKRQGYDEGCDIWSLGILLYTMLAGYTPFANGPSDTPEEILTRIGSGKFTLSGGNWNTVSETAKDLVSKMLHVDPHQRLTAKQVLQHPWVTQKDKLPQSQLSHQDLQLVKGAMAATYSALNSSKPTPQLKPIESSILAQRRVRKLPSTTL

RSK1 [4] = target: T2, RSK1; test: FRET kinase binding assay, RSK1; conditions: for % Uninhibited kinase at 30 μM: 30 μM inhibitor
Description: as §2, §1
The results from the pre-incubation experiments provide an indirect measure of the inhibitor off rate whereas the simultaneous addition of inhibitor and tracer provide an indirect measure of the inhibitor on rate. […] The mechanism that accounts for the unique properties of RSK2 interacting with 1c are unknown.

RSK2 [5] = target: T1, RSK2; test: ELISA dilution reaction (100-fold dilution after 2 h pre-incubation), RSK2; type: biochemical
Description: The activity of RSK2 was measured as previously reported. Briefly, 1 nM kinase, inhibitor or vehicle (1% DMSO), and 10 μM ATP in kinase buffer were dispensed into the wells of a 96-well plate with adsorbed glutathione S-transferase fusion protein containing the sequence […]. The reaction was stopped after 30 min, during the linear phase, with the addition of equal volume 500 mM EDTA, then phosphorylated peptide was measured by ELISA. Luminescence from wells with EDTA added before ATP was subtracted, then luminescence was normalised to the average vehicle luminescence. […] After 2 h incubation, the kinase/inhibitor mix was diluted 100-fold in kinase buffer. […] After the dilution, kinase/inhibitor solution and 3.3 μM ATP in kinase buffer were mixed to initiate the reaction. The reaction was stopped at the time indicated in the figures with the addition of EDTA, and amount of phosphorylated peptide was measured by ELISA.
To further analyse the stability of RSK2 with 1c the ELISA assay was used as an orthogonal approach. […] Inhibition of kinase activity was measured at differing time points and compared to that obtained with a concentration of inhibitor equal to the concentration after dilution. […]
Figure 6. […] After dilution, ATP was added and the reaction proceeded for the times indicated, then the reaction was stopped with EDTA and the amount of phosphorylated substrate was measured by ELISA. […]

RSK2 NTKD = target: T3, RSK2 NTKD (Homo sapiens, UniProt P51812); test: FRET kinase binding assay, isolated RSK2 NTKD; conditions: for % Uninhibited kinase at 30 μM: 30 μM inhibitor
T3 construct: domain, containing residues 1–389; made in house
T3 sequence (P51812 1-389): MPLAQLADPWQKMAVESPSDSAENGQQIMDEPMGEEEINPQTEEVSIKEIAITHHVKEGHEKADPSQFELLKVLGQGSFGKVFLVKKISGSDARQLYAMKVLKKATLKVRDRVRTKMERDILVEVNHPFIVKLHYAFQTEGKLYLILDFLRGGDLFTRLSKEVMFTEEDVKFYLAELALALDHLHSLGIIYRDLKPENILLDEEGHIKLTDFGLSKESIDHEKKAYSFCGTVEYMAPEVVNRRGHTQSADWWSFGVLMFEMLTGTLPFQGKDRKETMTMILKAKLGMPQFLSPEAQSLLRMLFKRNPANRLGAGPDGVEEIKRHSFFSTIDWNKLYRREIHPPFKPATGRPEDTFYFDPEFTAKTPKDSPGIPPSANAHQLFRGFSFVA
Description: as §2
Recombinant baculoviruses were generated by the Gateway cloning using the BaculoDirect Baculovirus Expression System (Invitrogen) according to the manufacturer's manual.The cDNA for RSK2 NTKD was amplified by conventional PCR, then cloned into pENTR-D-TOPO (pENTR Directional TOPO Cloning Kits, Invitrogen). The resulting Gateway Entry vectors were used for making the baculoviruses in the same way as RSK1 and RSK2 WT viruses. These constructs have 6xHis sequence in their C-termini and recombinant proteins were purified by Ni-NTA Agarose (Qiagen).
as §1

RSK1 [6] = target: T2, RSK1; test: ELISA kinase activity assay, RSK1; type: biochemical; conditions: RSK1, 2 h pre-incubation
RSK4 = RSK4 (Homo sapiens, UniProt Q9UK32); test: FRET kinase binding assay, GST-tagged RSK4
Sequence of RSK4 (Q9UK32 whole entry, species assumed): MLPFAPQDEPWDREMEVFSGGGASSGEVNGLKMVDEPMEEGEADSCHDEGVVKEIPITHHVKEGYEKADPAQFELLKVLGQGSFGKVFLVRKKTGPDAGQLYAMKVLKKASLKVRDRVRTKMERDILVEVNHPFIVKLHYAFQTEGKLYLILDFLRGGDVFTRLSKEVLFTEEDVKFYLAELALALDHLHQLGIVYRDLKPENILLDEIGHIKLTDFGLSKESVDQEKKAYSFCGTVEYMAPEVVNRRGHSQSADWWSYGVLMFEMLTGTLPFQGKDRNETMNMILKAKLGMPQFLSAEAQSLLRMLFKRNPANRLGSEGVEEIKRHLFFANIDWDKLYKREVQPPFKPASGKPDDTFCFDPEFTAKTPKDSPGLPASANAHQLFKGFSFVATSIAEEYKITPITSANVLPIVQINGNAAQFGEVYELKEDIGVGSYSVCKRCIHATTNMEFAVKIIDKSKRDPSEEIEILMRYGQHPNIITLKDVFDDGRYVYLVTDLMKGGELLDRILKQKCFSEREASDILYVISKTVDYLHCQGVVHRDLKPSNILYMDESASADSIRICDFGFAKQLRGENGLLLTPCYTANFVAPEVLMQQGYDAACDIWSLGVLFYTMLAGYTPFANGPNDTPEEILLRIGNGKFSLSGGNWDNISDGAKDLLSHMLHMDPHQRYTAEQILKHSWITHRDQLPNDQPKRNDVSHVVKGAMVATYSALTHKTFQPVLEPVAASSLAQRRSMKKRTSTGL
Description: (§3) For RSK1 and RSK2 NTKD, 2 nM Eu Streptavidin and 2 nM Biotin anti-His antibody (Invitrogen) and for RSK3/4, 2 nM Eu anti-GST antibody (Invitrogen) were used in place of the Eu anti-His antibody. […] The corresponding average EMR of wells without inhibitor or kinase was subtracted, and background-subtracted EMR was normalised to average vehicle control. Normalised EMR was calculated in MATLAB (Mathworks).
(§4) Hill slope and IC50 were unconstrained. […] Curve fitting and statistics were calculated in Prism 9.0.2 (Graphpad). Statistical significance is considered using α = 0.01.
(§5) This assay uses an ATP-mimetic tracer labelled with an acceptor fluorophore and a recombinant His-tagged kinase, which is indirectly labelled with a europium donor chelated to an anti-His antibody. Interaction of the tracer with the kinase generates a FRET signal. […] GST-tagged RSK3 and RSK4 were purchased and tested with a labelled anti-GST antibody in the FRET assay.

RSK3 = RSK3 (Homo sapiens, UniProt Q15349); test: FRET kinase binding assay, GST-tagged RSK3
Sequence of RSK3 (Q15349 whole entry, species assumed): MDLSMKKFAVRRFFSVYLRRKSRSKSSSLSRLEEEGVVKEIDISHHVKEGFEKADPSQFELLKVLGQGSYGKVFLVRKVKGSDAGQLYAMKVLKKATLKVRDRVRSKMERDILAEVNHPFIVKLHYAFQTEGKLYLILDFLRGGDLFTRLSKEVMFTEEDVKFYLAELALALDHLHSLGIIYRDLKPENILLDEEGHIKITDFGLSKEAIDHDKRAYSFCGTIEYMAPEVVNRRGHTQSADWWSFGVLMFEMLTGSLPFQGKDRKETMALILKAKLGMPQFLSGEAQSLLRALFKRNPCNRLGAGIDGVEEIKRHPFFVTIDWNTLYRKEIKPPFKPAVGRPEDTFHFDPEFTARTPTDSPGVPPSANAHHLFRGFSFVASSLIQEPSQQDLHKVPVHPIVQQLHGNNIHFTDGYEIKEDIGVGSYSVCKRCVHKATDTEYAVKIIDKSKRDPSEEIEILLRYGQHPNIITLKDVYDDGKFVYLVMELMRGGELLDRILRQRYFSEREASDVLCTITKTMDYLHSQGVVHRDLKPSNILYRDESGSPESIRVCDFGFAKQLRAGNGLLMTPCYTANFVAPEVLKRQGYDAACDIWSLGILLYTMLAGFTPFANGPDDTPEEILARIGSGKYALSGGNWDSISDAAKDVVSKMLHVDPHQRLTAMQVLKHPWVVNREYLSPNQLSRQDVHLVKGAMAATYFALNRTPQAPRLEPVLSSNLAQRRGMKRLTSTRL
Description: as §3, §4, §5

[7] = FRET, RSK2, 5 min kinase-inhibitor incubation
[8] = FRET, RSK2, 2 h kinase-inhibitor incubation before tracer

T1 sequence (P51812 whole entry, the tested form may be a part): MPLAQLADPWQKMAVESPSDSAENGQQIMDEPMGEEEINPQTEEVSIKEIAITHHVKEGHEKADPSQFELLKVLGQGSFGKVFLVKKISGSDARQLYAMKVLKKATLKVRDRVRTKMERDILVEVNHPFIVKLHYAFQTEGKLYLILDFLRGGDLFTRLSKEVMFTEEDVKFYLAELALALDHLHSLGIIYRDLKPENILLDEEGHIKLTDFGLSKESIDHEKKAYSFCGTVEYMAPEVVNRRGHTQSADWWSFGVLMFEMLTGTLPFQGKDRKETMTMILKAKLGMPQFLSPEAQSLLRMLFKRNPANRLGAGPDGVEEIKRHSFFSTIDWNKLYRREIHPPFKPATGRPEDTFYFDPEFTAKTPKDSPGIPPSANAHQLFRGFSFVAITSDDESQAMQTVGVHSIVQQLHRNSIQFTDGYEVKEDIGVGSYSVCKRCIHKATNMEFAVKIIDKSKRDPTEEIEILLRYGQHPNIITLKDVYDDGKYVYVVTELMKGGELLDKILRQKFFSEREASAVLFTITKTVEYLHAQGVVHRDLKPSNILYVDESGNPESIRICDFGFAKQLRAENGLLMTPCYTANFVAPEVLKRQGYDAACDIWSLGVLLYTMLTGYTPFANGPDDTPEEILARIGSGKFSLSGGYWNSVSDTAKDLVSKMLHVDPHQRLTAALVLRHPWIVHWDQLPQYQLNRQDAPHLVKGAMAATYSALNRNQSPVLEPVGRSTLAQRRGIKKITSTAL

SMILES | IC50 (RSK2 [1]; RSK2, 2 h pre-incubation) | % Uninhibited kinase at 30 μM (RSK2 [1]; RSK2, 2 h pre-incubation) | % Uninhibited kinase at 30 μM (RSK2 [2]; FRET, RSK2, 5 min incubation) | IC50 (RSK2 [2]; [7]) | % Uninhibited kinase at 30 μM (RSK2 [2]; FRET, RSK2, 2 h incubation) | IC50 (RSK2 [2]; [8]) | Relative Off-Rate (RSK2 [2]; RSK2) | IC50 (RSK1 [4]; FRET, RSK1, 2 h incubation) | % Uninhibited kinase at 30 μM (RSK1 [4]; FRET, RSK1, 2 h incubation) | % Uninhibited kinase at 30 μM (RSK2 NTKD; 2 h incubation) | other results
CCCNC(=O)O[C@@H]1[C@@H](OC(C)=O)[C@@H](O)[C@H](Oc2c(-c3ccc(O)cc3)oc3cc(O)cc(O)c3c2=O)O[C@H]1CCC [Inhibitor 1c, (2 s,3R,4S,5S,6S)-2-((5,7-dihydroxy-2–(4-hydroxyphenyl)-4-oxo-4H-chromen-3-yl)oxy)-3-hydroxy-6-propyl-5-((propylcarbamoyl)oxy)tetrahydro-2H-pyran-4-yl acetate] | 84.7 nM | 9.4% | 26.2% | 6400 nM | 0.3% | 37.4 nM | 0.126 log10(nM/min) | 12.8 nM | 6.1% | 11.1% | Inhibition of RSK1 after the dilution (RSK1 [3]): not inhibited; Relative on-rate (RSK1 [4]; RSK1, change in IC50 over time, tracer added simultaneously with inhibitor): −0.719 log10(nM/min); Off: On Ratio (RSK1 [4]; RSK1, ratio of absolute value of relative off-rate to on-rate): 0.25; Relative Off-Rate (RSK1 [4]; RSK1, slope of change in IC50 over time after 2 h pre-incubation, log-log fit): 0.176 log10(nM/min); Inhibition at 8-fold higher concentration than the IC50 (RSK2 [2]; FRET, RSK2, 5 min pre-incubation): 75%; Off rate lower than that of 1d, 1e, and 1f (RSK2 [2]; RSK2, relative off-rate comparison): more than three-fold; Relative on-rate (RSK2 [2]; RSK2, change in IC50 over time, tracer added simultaneously with inhibitor): −1.204 log10(nM/min); Off: On Ratio (RSK2 [2]; RSK2, ratio of absolute value of relative off-rate to on-rate): 0.10; inhibition at 1.5 µM (RSK2 [5]; over a 12 h time course after 100-fold dilution, 100 nM RSK2 pre-incubated 2 h with 1.5 μM 1c): ~50%; IC50 (RSK2 NTKD; 2 h incubation): 12 nM
CCCNC(=O)O[C@@H]1[C@@H](OC(=O)NCCC)[C@@H](O)[C@H](Oc2c(-c3ccc(O)cc3)oc3cc(O)cc(O)c3c2=O)O[C@H]1CCC [Inhibitor 1e, (2 s,3S,4S,5R,6S)-6-((5,7-dihydroxy-2–(4-hydroxyphenyl)-4-oxo-4H-chromen-3-yl)oxy)-5-hydroxy-2-propyltetrahydro-2H-pyran-3,4-diyl bis(n-propylcarbamate)] |  |  |  |  | 0.8% | 83.7 nM | 0.417 log10(nM/min) |  |  |  | melting point: 158 to 160 °C
CCCNC(=O)OC1C(CCC)CC(Oc2c(-c3ccc(O)cc3)oc3cc(O)cc(O)c3c2=O)C(O)C1OC(=O)NCCC (stereo not drawn) [Inhibitor 1f] |  |  |  |  | 1.3% | 90.9 nM | 0.630 log10(nM/min) |  |  |  | 
CC(=O)OC1C(C)OC(Oc2c(-c3ccc(O)cc3)oc3cc(O)cc(O)c3c2=O)C(O)C1OC(C)=O (stereo not drawn) [SL0101, reference compound] |  | 13.9% | 45.7% |  | 4.3% |  |  | 193 nM | 16.7% | 11.5% | IC50 (RSK1 [6]): 70.7 nM; % Uninhibited kinase at 30 μM (RSK1 [6]; 30 μM inhibitor): 3.9%; Inhibition of RSK4 (RSK4; 2 h incubation): did not inhibit; % Uninhibited kinase at 30 μM (RSK4; RSK4, 2 h incubation, 30 μM inhibitor): 70.9%; Increase in IC50 with 5 min vs 2 h pre-incubation (RSK2 [1]; RSK2): two-fold; % Uninhibited kinase at 30 μM (RSK2 [1]; RSK2, 5 min pre-incubation): 31.6%; IC50 (RSK1 [4]; FRET, RSK1, 5 min incubation): 774 nM; Inhibition after 5 min incubation (RSK1 [4]; FRET, RSK1, 5 min incubation): 80%; % Uninhibited kinase at 30 μM (RSK1 [4]; FRET, RSK1, 5 min incubation): 19.2%; Inhibition after 5 min incubation (RSK2 [2]; FRET, RSK2, 5 min incubation): ~50%; Inhibition of RSK2 after the dilution (RSK2 [5]; 4 h after 100-fold dilution, 100 nM RSK2 pre-incubated 2 h with 5 μM SL0101): unable to inhibit; Inhibition of RSK3 (RSK3; 2 h incubation): did not inhibit; % Uninhibited kinase at 30 μM (RSK3; RSK3, 2 h incubation, 30 μM inhibitor): 90.3%; Increase in IC50 with 5 min vs 2 h incubation (RSK2 NTKD): two-fold; Inhibition after 5 min incubation (RSK2 NTKD; 5 min incubation): ~80%; % Uninhibited kinase at 30 μM (RSK2 NTKD; 5 min incubation): 20.1%

More lines, in order of falling IC50 (RSK2 [2]; [8]), values ahead:

IC50 (RSK2 [1]; RSK2, 2 h pre-incubation) | % Uninhibited kinase at 30 μM (RSK2 [1]; RSK2, 2 h pre-incubation) | % Uninhibited kinase at 30 μM (RSK2 [2]; FRET, RSK2, 5 min incubation) | IC50 (RSK2 [2]; [7]) | % Uninhibited kinase at 30 μM (RSK2 [2]; FRET, RSK2, 2 h incubation) | IC50 (RSK2 [2]; [8]) | Relative Off-Rate (RSK2 [2]; RSK2) | IC50 (RSK1 [4]; FRET, RSK1, 2 h incubation) | % Uninhibited kinase at 30 μM (RSK1 [4]; FRET, RSK1, 2 h incubation) | % Uninhibited kinase at 30 μM (RSK2 NTKD; 2 h incubation) | SMILES | other results
183 nM | 15.7% | 49.7% | 24100 nM | 1.3% | 215 nM | 0.601 log10(nM/min) |  |  |  | CCCC1CC(Oc2c(-c3ccc(O)cc3)oc3cc(O)cc(O)c3c2=O)C(O)C(OC(C)=O)C1OC(C)=O (stereo not drawn) [Inhibitor 1b, C5”-n-propyl cyclitol SL0101] | Specificity in screen of 247 kinases (247 kinases): primarily targeted RSK1/2; Inhibition of proliferation when RSK1/2 silenced (RSK1/2): ineffective
74.1 nM | 11.1% |  |  | 0.5% | 26.3 nM | 0.548 log10(nM/min) |  |  |  | CCCNC(=O)OC1C(CCC)CC(Oc2c(-c3ccc(O)cc3)oc3cc(O)cc(O)c3c2=O)C(O)C1OC(C)=O (stereo not drawn) [Inhibitor 1d] | 
